Data set [1] in a line: Stability in rat plasma assessed as compound remaining level at 100 uM incubated for 2 hrs by LC-MS/MS method. The data set is classed as ADME, cell-free. To be noted: for Stability: 2 h, 100 µM; for remaining at 2 h, 100 µM: read-out: Stability.
Data set [2] is described as follows: Stability in mouse plasma assessed as compound remaining level at 100 uM incubated for 2 hrs by LC-MS/MS method. The format is ADME, cell-free.
A short description of data set [3]: Cmax in C57BL/6J mouse at 10 mg/kg, po after 0.25 to 24 hrs by LC-MS/MS method. The format is ADME, organism-based. The arrangement: dose 10 mg/kg, route oral. Particulars: in vivo.
A short description of data set [4]: (§1) AUC (0 to infinity) in C57BL/6J mouse at 10 mg/kg, po after 0.25 to 24 hrs by LC-MS/MS method. The data set is classed as ADME, organism-based. The arrangement: dose 10 mg/kg, time infinity, route oral. To be noted: C57BL/6J, in vivo.
The target in data set [5] is T1, Caspase-3 (Homo sapiens, UniProt P42574).
T1 sequence (P42574 whole entry): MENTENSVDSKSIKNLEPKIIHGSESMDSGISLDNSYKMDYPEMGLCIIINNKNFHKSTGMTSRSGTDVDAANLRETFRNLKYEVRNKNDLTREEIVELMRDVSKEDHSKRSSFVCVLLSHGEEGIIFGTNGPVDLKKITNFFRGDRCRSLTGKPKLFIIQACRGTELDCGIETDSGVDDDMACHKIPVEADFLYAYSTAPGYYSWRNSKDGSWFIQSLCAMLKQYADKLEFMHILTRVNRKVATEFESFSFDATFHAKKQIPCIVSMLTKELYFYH
The experiment in a line: Inhibition of Anti-Fas antibody-induced caspase-3 activity in human Jurkat E6-1 cells using Ac-DEVD-AMC substrate by fluorescence based assay. The data set is classed as cell-based.

Data set [6] can be described thus: AUC in C57BL/6J mouse liver at 1 mg/kg, po after 0.5 to 6 hrs by LC-MS/MS method. The data set is classed as ADME, organism-based. Also on record: time lower 0.5 hr, dose 1 mg/kg, time upper 6 hr, route oral. To be noted: in vivo.
For data set [7], the system named is Mus musculus. The data set can be described thus: AUC (0 to infinity) in C57BL/6J mouse at 1 mg/kg, iv after 0.25 to 24 hrs by LC-MS/MS method. The format is ADME, organism-based. The arrangement: dose 1 mg/kg, time infinity, route intravenous. To be noted: in vivo.
Data set [8] concerns Mus musculus. The data set is described as §1. The format is ADME, organism-based. The arrangement: dose 10 mg/kg, time infinity, route oral. Particulars: in vivo.
In data set [9] the test system is Rattus norvegicus. The data set can be described thus: Reduction in serum total bilirubin level in Sprague-Dawley rat model of alpha-naphthylisothiocyanate-induced cholestatic liver disease at 6 mg/kg administered intragastrically once daily for 1 week. The data set is classed as functional, organism-based.
For data set [10], the system named is Rattus norvegicus. The data set can be described thus: Reduction in serum direct bilirubin level in Sprague-Dawley rat model of alpha-naphthylisothiocyanate-induced cholestatic liver disease at 6 mg/kg administered intragastrically once daily for 1 week. The data set is classed as functional, organism-based.
Data set [11] has as its system Rattus norvegicus. The experiment in a line: Reduction in serum indirect bilirubin level in Sprague-Dawley rat model of alpha-naphthylisothiocyanate-induced cholestatic liver disease at 6 mg/kg administered intragastrically once daily for 1 week. The format is functional, organism-based.

The source made the active and inactive calls. The rule behind the calls is not given here.

On to `O=C(O)C[C@H](NC(=O)C1CCN(C(=O)Oc2ccccc2Cl)CC1)C(=O)COc1c(F)c(F)cc(F)c1F`, for which the Stability result in [1] and in data set [2] was “Unstable” throughout.
Consider `CC(C)(C)c1ccccc1NC(=O)C(=O)N1CCC(C(=O)N[C@@H](CC(=O)O)C(=O)COc2c(F)c(F)cc(F)c2F)CC1`, for which the remaining at 2 h, 100 µM in data set [1] was 93%. Moreover, in data set [3], the concentration peaked (Cmax) at 1640 nM. This molecule also had an AUC(0-inf) in [4] of 3.66 µM·h.
Consider `C[C@H](NC(=O)C(=O)Nc1ccccc1C(C)(C)C)C(=O)N[C@@H](CC(=O)O)C(=O)COc1c(F)c(F)cc(F)c1F` [EMRICASAN], for which, in [5], 6 nM corresponded to half-maximal inhibition (IC50). In addition, the AUC was 2350 nmol·h/kg in [6], 0.446 µM·h in data set [7] and 0.197 µM·h in data set [8]. Also, the Cmax in data set [3] worked out at 227 nM.
Turning to `O=C(O)C[C@H](NC(=O)C1CCN(C(=O)c2cccs2)CC1)C(=O)COc1c(F)c(F)cc(F)c1F`, in data set [6], the AUC was 804 nmol·h/kg.
On to `CC(C)(C)c1ccccc1NC(=O)C(=O)N1CCC[C@@H](C(=O)N[C@@H](CC(=O)O)C(=O)COc2c(F)c(F)cc(F)c2F)C1`, for which, in data set [1], the remaining at 2 h, 100 µM is 67%.
As to `O=C(O)C[C@H](NC(=O)C1CCN(C(=O)OC2CCCC2)CC1)C(=O)COc1c(F)c(F)cc(F)c1F`, the Stability result in data set [1] and in [2] was “Stable” throughout.
On to `O=C(O)C[C@H](NC(=O)C1CCN(C(=O)C2CC(F)(F)C2)CC1)C(=O)COc1c(F)c(F)cc(F)c1F`, for which the AUC in [6] is 334 nmol·h/kg.
With `O=C(O)C[C@H](NC(=O)C1CCN(C(=O)C2CCCC2)CC1)C(=O)COc1c(F)c(F)cc(F)c1F`, the AUC in data set [6] turned out to be 2219 nmol·h/kg; in data set [7] it was 0.852 µM·h; in data set [8], 1.71 µM·h. The same molecule registered a Cmax in [3] of 405 nM. Besides, the outcome in data set [9], in data set [10] and in data set [11] was Active.

Broadly, the Cmax is the peak of the concentration-time curve. By AUC(0-inf) is commonly meant the area under the concentration-time curve extrapolated to infinity. Read a low AUC(0-inf) as low exposure. For orientation: IC50 means the point on the concentration scale where inhibition reaches its midpoint. Higher therefore signals a need for much substance.

These data come from ChEMBL document CHEMBL4219217, “Structure-activity relationship study of a series of caspase inhibitors containing γ-amino acid moiety for treatment of cholestatic liver disease” (Bioorg Med Chem Lett, 2018).
